Measured values from US8372808B2, “Suppression of glial fibrillary acidic protein” (Wisconsin Alumni Research Foundation, priority 2008, dated 2013).
Structures can show the parent of a compound that is named as a salt. Where two headings read alike, the source gives them in different places.

How the values were obtained:
[1] = test system: 2.2 kb human GFAP promoter; experiment: hGFAP promoter luciferase activity assay in 172.9 cells (primary astrocytes from dual luciferase transgenic mice); assay type: cell-based; conditions: for effect on GFAP promoter activity (luciferase expression driven by the hGFAP promoter): 172.9 cells, 3 days of treatment, 0-20 μM; for % GFAP reductions, luciferace expression from hGFAP promoter: tertiary screen, 48 hr exposure, at the MTDcc; for suppression in the promoter assay: secondary screen, 10 μM, 48 hours
Procedure: Cell-based assays were performed as four different screens using enriched cortical primary astrocyte cultures developed from transgenic mice expressing both firefly and Renilla luciferase reporter genes were generated. Briefly, the'firefly luciferase was placed under the control of a 2.2 kb human GFAP promoter to monitor GFAP transcription, and the Renilla luciferase was placed under the control of a 0.5 kb human GAPDH (glyceraldehyde 3-phosphate dehydrogenase) promoter to monitor transcription of a housekeeping gene for signal normalization. See section B, below for more detail regarding the development of transgenic mouse strains. Cells used in the following examples (e.g., the cortical primary astrocyte cells termed “172.9 cells,” described below) were developed from the transgenic mice described in section B.
Briefly, the cortices from individual pups were freed of meninges and placed into DMEM (Gibco) without serum, mechanically disassociated into single cells, suspended in medium containing DMEM supplemented with 10% fetal bovine serum (FBS; Hyclone), 100 U/ml penicillin, 100 μg/ml streptomycin (Gibco), seeded into T25 flasks (one brain per flask), and maintained in a humidified 5% CO2 atmosphere at 37° C. […] Medium was changed every 3 days. At 14-16 days in vitro (DIV), the flasks were shaken overnight at 200 rpm to remove oligodendrocytes and microglia. […] The cells were then suspended in DMEM with 10% FBS and plated (“passage 2”) on either 35 mm dishes, […], or 96-well plates (Corning) as needed. Cells were grown for varying days in vitro (DIV) at passage 2 and then used for various experiments. Tissue culture dishes and plates were pre-coated with 100 μg/ml poly-L-lysine for 1 h in a humidified 5% CO2 atmosphere at 37° C., and then allowed to air dry. […] Cell density was measured with the Vi-CELL cell counter (Beckman Coulter) or hemocytometer by the trypan-blue exclusion method. For simplicity, cells are referred to as “172.9 cells.”
Briefly, 172.9 cells were plated on poly-L coated white 96-well plates at a density of 5000 cells per well, in 100 μl DMEM with 10% FBS. At twenty-four hours, cells were exposed to the different compounds at a final concentration of 10 μM (diluted from a 50 mM stock) prepared in new medium (DMEM with 10% FBS). […] After exposure to compounds, luciferase activity in the primary and secondary screenings was determined by adding 30 μl of Bright-Glo™ reagent (Promega) to the 100 μl of media and cells of each well in the white 96-well plates with the Biomek® FX liquid handler (Beckman Coulter). After incubation for 1 minute at room temperature, signals were measured with the Safire 2 plate reader using Magellan™ software (Tecan). Other specific methods and equipment are known in the art and can be used to measure luciferase expression levels. This assay method is termed the “hGFAP promoter luciferase activity assay.” A reduction in luciferase expression as determined by this assay is termed “hGFAP promoter luciferase reduction.” For some assays that were aimed at confirming results of the initial screens, the same amount of Bright-Glo™ reagent was applied to each well in 96-well plates and signals were detected with the GloRunner™ Microplate Luminometer (Turner Biosystems) using the Dual-Glo® luciferase assay according to the manufacturer's recommendations (E1910, Promega).
In the secondary screen, cells were plated in a 96-well plate as described above for the primary screen.
Some compounds were unavailable outside of the library collections, and could not be further tested.
Each compound and concentration was analyzed in quadruplicate wells.
Compounds were tested at eight different concentrations ranging from 0-20 μM. In addition, GFAP protein levels were measured using a sandwich ELISA, which has greater sensitivity and is more accurate than the cell-based ELISA used in the primary screens.

mGFAP protein [2] = experiment: GFAP protein levels by ELISA in 172.9 cells treated with betulinic acid derivatives; assay type: cell-based, mouse; conditions: 7 days of treatment, 0-20 μM
Procedure: FIG. 9A-D are graphs showing the effects of betulinic acid and betulinic acid derivatives on mGFAP protein levels in 172.9 cells after 7 days of treatment. In the graphs, ester and amide forms of various compounds are paired for comparison.
172.9 cells were used to test the effects of betulinic acid and betulinic acid derivatives on GFAP promoter activity and GFAP protein levels. Experiments were performed as previously described. Each of eight compounds (D-altroside (ester); D-altroside (amide); D-xyloside (ester); D-xyloside (amide); aglycon (ester); aglycon (amide); betulinic acid; 3-amino betulinic acid) was tested at a concentration of 0 μM, 0.1 μM, 0.5 μM, 1 μM, 5 μM, 10 μM, 15 μM, and 20 μM. […] Toxicity of the compounds was also evaluated.

mGFAP protein [3] = experiment: cell-based GFAP protein level assay (cell-based ELISA) in 172.9 cells; set-up: species or system mouse; conditions: for % GFAP reductions, mGFAP protein via ELISA: tertiary screen, 48 hr exposure, at the MTDcc; for suppression in the protein assay: secondary screen, 10 μM, 48 hours
172.9 cells = experiment: cell viability (CellTiter-Glo) / MTDcc in 172.9 cells
Procedure: Criterion for acceptable viability was >70% survival.
Cell viability was determined as follows. After exposure to each compound (duplicate wells per compound), 50 μl of CellTitier-Glo Luminescent Cell Viability Assay reagent (G7571, Promega) was added to the 100 μl of media present in each well, and the luminescent signal (reflecting intracellular ATP level) was detected with either a Victor 3-V plate reader (Perkin Elmer) or GloRunner Microplate Luminometer (Turner Biosystems). Cell viability was expressed as a percent of non-treated control cells.
A dose-response curve was created for each compound (0.1, 0.5, 1, 5, 10, 15, 20 μM) using 48 hr exposures. The MTDcc (“maximum tolerated dose—cell culture”) indicates the highest concentration that retained at least 70% cell viability. Each compound and concentration was analyzed in quadruplicate wells. EGCDG: epigallocatechin 3,5-digallate; NPPB: 5-nitro-2-phenylproplyaminobenzoic acid. As used herein, MTDcc refers to the MTD as determined by this assay under the above conditions.

[4] = tertiary screen, 48 hr exposure, 0.1-20 μM, highest concentration that retained at least 70% cell viability

Molecule	% GFAP reductions, luciferace expression from hGFAP promoter [1]	% GFAP reductions, mGFAP protein via ELISA (mGFAP protein [3])	MTDcc (172.9 cells; mouse, 48 h)	also measured
C=C(C)[C@@H]1CC[C@]2(C(=O)O)CC[C@]3(C)[C@H](CCC4[C@@]5(C)CC[C@H](N)C(C)(C)C5CC[C@]43C)C12 (stereo partly drawn) [3-amino betulinic acid, (3S)-Aminobetulinic acid]				effect on GFAP promoter activity (luciferase expression driven by the hGFAP promoter) [1]: decrease in GFAP promoter activity; effect on GFAP protein levels (mGFAP protein [2]): reduced GFAP protein levels more than the ester form
C=C(C)[C@@H]1CC[C@]2(C(=O)O)CC[C@]3(C)[C@H](CCC4[C@@]5(C)CC[C@H](OC(=O)CN(OC)[C@@H]6OC(CO)[C@@H](O)C(O)C6O)C(C)(C)C5CC[C@]43C)C12 (stereo partly drawn) [D-altroside (ester), (3S)—O—(N-Methoxy-N-β-D-altrosylglycyl)betulinic acid]				effect on GFAP promoter activity (luciferase expression driven by the hGFAP promoter) [1]: more dramatic decrease in GFAP promoter activity than the amide form; effect on GFAP protein levels (mGFAP protein [2]): reduced GFAP protein levels more than the amide form
C=C(C)[C@@H]1CC[C@]2(C(=O)O)CC[C@]3(C)[C@H](CCC4[C@@]5(C)CC[C@H](OC(=O)CN(OC)[C@@H]6OC[C@@H](O)C(O)C6O)C(C)(C)C5CC[C@]43C)C12 (stereo partly drawn) [D-xyloside (ester), (3S)—O—(N-Methoxy-N-β-D-xylosylglycyl)betulinic acid]				effect on GFAP promoter activity (luciferase expression driven by the hGFAP promoter) [1]: more dramatic decrease in GFAP promoter activity than the amide form; effect on GFAP protein levels (mGFAP protein [2]): reduced GFAP protein levels more than the amide form
C=C(C)[C@@H]1CC[C@]2(C(=O)O)CC[C@]3(C)[C@H](CCC4[C@@]5(C)CC[C@H](NC(=O)CNOC)C(C)(C)C5CC[C@]43C)C12 (stereo partly drawn) [aglycon (amide), (3S)—N—(N′-Methoxyglycyl)aminobetulinic acid]				effect on GFAP protein levels (mGFAP protein [2]): reduced GFAP protein levels more than the ester form
C[C@]12CC[C@@H]3c4ccc(OC(=O)c5ccccc5)cc4CC[C@H]3[C@@H]1CC[C@@H]2O [estradiol benzoate]	26%	−2.8%	>20 µM	
CC(=O)OCC(=O)[C@@]12OC(C)(C)O[C@@H]1C[C@H]1[C@@H]3C[C@H](F)C4=CC(=O)C=C[C@]4(C)[C@@]3(F)[C@@H](O)C[C@@]12C [fluccinonide]	28%	−2.2%		MTDcc (172.9 cells; [4]): >20 µM
OCCN1CCN(CCCN2c3ccccc3Sc3ccc(C(F)(F)F)cc32)CC1 [fluphenazine]	23%	−6.7%	7.5 µM	
CCCCC(CC)CN1CN(CC(CC)CCCC)CC(C)(N)C1 (centres unmarked) [hexetidine]	26%	6.4%	>20 µM	
O=c1c(-c2cc(O)c(O)c(O)c2)coc2cc(O)c(O)c(O)c12 [irigenol]	28%	1.8%	>20 µM	suppression in the promoter assay [1]: significant suppression; suppression in the protein assay (mGFAP protein [3]): significant suppression
NC[C@H]1O[C@H](O[C@H]2[C@H](O)[C@@H](O[C@H]3O[C@H](CO)[C@@H](O)[C@H](N)[C@H]3O)[C@H](N)C[C@@H]2N)[C@H](O)[C@@H](O)[C@@H]1O [kanamycin]	22%	11.3%	>20 µM	
CN1CCC(=C2c3ccccc3CC(=O)c3sccc32)CC1 [ketotifen]	25%	8.6%	>20 µM	
COc1ccc2c(c1)O[C@@H]1COc3cc(OC)c(OC)cc3[C@@H]1C2=O [mundoserone]	50%	1.6%	>20 µM	suppression in the promoter assay [1]: significant suppression; suppression in the protein assay (mGFAP protein [3]): significant suppression
NC[C@H]1O[C@H](O[C@H]2[C@H](O)[C@@H](O)[C@H](N)C[C@@H]2N)[C@H](N)[C@@H](O)[C@@H]1O [neamine]	5%	−0.8%		MTDcc (172.9 cells; [4]): >20 µM
O=C1CCCN1CC#CCN1CCCC1 [oxotremorine]	16%	2.7%		MTDcc (172.9 cells; [4]): >20 µM
CC(C)(CO)[C@@H](O)C(=O)NCCC(=O)O [pantothenic acid]	6%	−3.5%	>20 µM	
CN(CC(=O)O)C(=N)NP(=O)(O)O [phosphocreatine]	13%	3.8%		MTDcc (172.9 cells; [4]): >20 µM
Cc1nc2sccn2c(=O)c1CCN1CCC(=C(c2ccc(F)cc2)c2ccc(F)cc2)CC1 [ritanserin]	29%	9.6%	12.5 µM	
CC(NCCc1ccc(O)cc1)C(O)c1ccc(O)cc1 (centres unmarked) [ritodrine]	16%	5.2%	>20 µM	
COC(=O)[C@H](O)[C@H]1C(C)(C)[C@H](OC(C)=O)[C@@H]2CC3=C4CC(=O)O[C@@H](c5ccoc5)[C@]4(C)CC[C@@H]3[C@@]1(C)C2=O [swietenolide-3-acetate]	8%	0.7%		MTDcc (172.9 cells): >20 µM
CC/C(=C(\c1ccccc1)c1ccc(OCCN(C)C)cc1)c1ccccc1 [tamoxifen citrate]	52%	21.6%	7.5 µM	
CSc1ccc2c(c1)N(CCC1CCCCN1C)c1ccccc1S2 (centres unmarked) [thioridazine]	37%	17.7%	5 µM	
COc1ccc(C(=O)O)cc1OC [veratic acid]	6%	−0.8%		MTDcc (172.9 cells; [4]): >20 µM
methylnorlichexanthone	10%	0.6%		MTDcc (172.9 cells; [4]): >20 µM
pyrogallin	22%	3.3%		MTDcc (172.9 cells; [4]): >20 µM
